Test results as given in patent publication EP3820845B1, “NOVEL, NEW GENERATION INHIBITOR COMPOUNDS SPECIFIC TO GST P1 ENZYME” (HACETTEPE ÜNIVERSITESI, priority 2018, dated 2020).
Read-outs that look alike come from different tables or passages of the source.

Tests used:
human-GST P1 (hGST P1) = human-GST P1 (hGST P1) (Homo sapiens, UniProt P09211); assay: Spectrophotometric GST P1 enzyme inhibition test (GSH/CDNB conjugation), IC50 determination; assay type: biochemical; settings: spectrophotometric enzyme activity, ctapm1 concentrations between 0-100 µM; GraphPrism calculation; Figure 1
Description: Pure human-GST P1 (hGST P1) enzyme has been used as target protein in enzyme inhibition tests. "Ethacrynic acid" has been used as the model inhibitor compound. Ctapm1 (compound 1) compound which is a tetrahydrocarbazole derivative has been used as the basic precursor inhibitor for compounds that are designed, synthesized and are planned to be synthesized with advanced modifications.
The enzyme activity was determined over the activity of GST P1 enzyme which conjugated GSH and 1-chloro-2,4-dinitrobenzene (CDNB). The test medium was prepared to include 100 mM sodium phosphate buffer (pH 6.5) comprising 1 mM EDTA, 1 mM GSH, 1 mM CDNB and 5% ethanol and the temperature of the medium was determined as 30°C. The formation of a conjugate (GS-DNB) was monitored for 1 minute over the absorbance increase at 340 nm wavelength. The specific activity was calculated using 0.0096 µM^-1 cm ^-1 absorption coefficient. […] [formula] ΔA: Absorbance change (A340/minute.ml) Vr: Reaction volume (ml) d: Dilution factor ε: Molar absorption coefficient (9,6 mM^-1, cm^-1) ℓ: Light path (0,524 cm for 1 cm microplate measurements for Standard spectrophotometry vessel, Ve: Volume added to the stock enzyme reaction medium (ml) […]
In order to determine IC50 values of compounds both the standard spectrophotometric method and the microplate kinetic reading method was used together. […]

GST P1 = GST P1 (Homo sapiens, UniProt P09211); assay: Enzyme kinetic analysis with GST P1 (GSH- and CDNB-dependent Michaelis-Menten / Lineweaver-Burk), Ki inhibition constants; assay type: biochemical; settings: Figure 2
Description: Figure 1. IC50 dose(Log)-inhibition graph of the spectrophotometric enzyme activity of GST P1 at concentrations of the ctapm1 compound between 0-100 µM. Figure 2. kinetic analysis results of ctapm1 compound with GST P1. A and C are the GSH and CDNB dependent Michaelis-Menten graphic of the ctapm1 compound and B and D are the GSH and CDNB dependent Lineweaver-Burk graphs of the ctapm1 compound. Figure 3. The schematic view of the THC fragment, its load distribution and elemental features. 2-dimension schematic view (a) of "2,3,4,9-tetrahydro-1H-carbazole"in (shortly tetra hydro or THC) and the load distribution (b) of the THC fragment. […]
The enzyme activity was determined over the activity of GST P1 enzyme which conjugated GSH and 1-chloro-2,4-dinitrobenzene (CDNB). The test medium was prepared to include 100 mM sodium phosphate buffer (pH 6.5) comprising 1 mM EDTA, 1 mM GSH, 1 mM CDNB and 5% ethanol and the temperature of the medium was determined as 30°C. The formation of a conjugate (GS-DNB) was monitored for 1 minute over the absorbance increase at 340 nm wavelength. The specific activity was calculated using 0.0096 µM^-1 cm ^-1 absorption coefficient. […]

Sequence of GST P1 (P09211 2-210 limits assumed): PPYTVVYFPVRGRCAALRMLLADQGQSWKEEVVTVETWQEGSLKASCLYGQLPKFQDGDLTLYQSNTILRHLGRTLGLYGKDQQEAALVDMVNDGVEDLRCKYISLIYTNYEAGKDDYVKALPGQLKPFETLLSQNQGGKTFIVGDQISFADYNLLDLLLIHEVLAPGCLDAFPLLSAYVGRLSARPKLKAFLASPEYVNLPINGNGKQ
Sequence of human-GST P1 (hGST P1) (P09211 2-210 limits assumed): as above

## S=c1[nH]nc(C2CCc3[nH]c4ccccc4c3C2)[nH]1 (stereo not drawn) [Compound 1, 3-(2,3,4,9-tetrahydro-1H-carbazole-3-yl)-1H-1,2,4-triazole-5(4H)-thione]
human-GST P1 (hGST P1)
  IC50: 1070 nM
GST P1; competitive type, read-out: Ki inhibition constant against CDNB
  Ki: 1700 nM
GST P1; non-competitive type, read-out: Ki inhibition constant against GSH
  Ki: 1740 nM
